Publication PMC3379896 (ACS medicinal chemistry letters, 2012)

Assays:
[1] = target: T1, MMP-7 (Homo sapiens, UniProt P09237); assay: Kinetic inhibition of MMP-7; assay type: biochemical; conditions: read-out: MMP-7 inhibition at fixed concentration
T1 sequence (P09237 95-267): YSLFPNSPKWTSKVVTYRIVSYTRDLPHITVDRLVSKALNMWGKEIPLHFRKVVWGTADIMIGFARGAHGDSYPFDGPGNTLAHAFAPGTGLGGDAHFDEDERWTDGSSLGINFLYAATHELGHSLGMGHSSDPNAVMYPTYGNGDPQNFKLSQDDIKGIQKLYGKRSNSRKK

[2] = target: MMP-14 (Homo sapiens, UniProt P50281); assay: Kinetic inhibition of MMP-14; conditions: slow-binding
[3] = target: T2, MMP-1 (Homo sapiens, UniProt P03956); assay: Kinetic inhibition of MMP-1; assay type: biochemical; conditions: read-out: MMP-1 inhibition at fixed concentration
T2 sequence (P03956 100-469): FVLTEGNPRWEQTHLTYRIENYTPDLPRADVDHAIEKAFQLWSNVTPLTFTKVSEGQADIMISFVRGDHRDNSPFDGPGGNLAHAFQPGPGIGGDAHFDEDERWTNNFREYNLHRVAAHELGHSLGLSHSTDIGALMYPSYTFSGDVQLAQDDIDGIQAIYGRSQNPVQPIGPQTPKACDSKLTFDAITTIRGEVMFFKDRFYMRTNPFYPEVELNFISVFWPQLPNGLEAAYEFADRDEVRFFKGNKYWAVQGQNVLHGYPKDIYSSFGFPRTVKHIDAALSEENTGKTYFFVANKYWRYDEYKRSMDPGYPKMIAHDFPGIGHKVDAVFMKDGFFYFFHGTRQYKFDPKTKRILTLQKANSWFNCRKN

Structure (SMILES): O=S(=O)(CC1CS1)c1ccc(Oc2cccc(F)c2)cc1 (stereo not drawn) [Compound 19b]
- inhibition at 125 µM [1]: 0 to 3%
- MMP-14 inhibition, in words [2]: include MMP-14 in their spectrum of inhibition

Structure (SMILES): O=S(=O)(CC1CS1)c1ccc(Oc2ccc(I)cc2)cc1 (stereo not drawn) [Compound 22a]
- inhibition at 60 µM [3]: 0 to 3%
- inhibition at 10 µM [1]: 0 to 3%
- MMP-14 inhibition, in words [2]: include MMP-14 in their spectrum of inhibition

Structure (SMILES): COCOc1ccc(Oc2ccc(S(=O)(=O)CC3CS3)cc2)cc1 (stereo not drawn) [Compound 33a]
- MMP-14 inhibition, in words [2]: include MMP-14 in their spectrum of inhibition

Structure (SMILES): O=S(=O)(CC1CS1)c1ccc(Oc2ccc(CO)cc2)cc1 (stereo not drawn) [Compound 26]
- MMP-14 inhibition, in words [2]: include MMP-14 in their spectrum of inhibition

Structure (SMILES): O=S(=O)(CC1CS1)c1ccc(Oc2ccc(OC(F)(F)F)cc2)cc1 (stereo not drawn) [Compound 38a]
- inhibition at 20 µM [1]: 0 to 3%
- MMP-14 inhibition, in words [2]: include MMP-14 in their spectrum of inhibition

Structure (SMILES): CC(C)Oc1ccc(Oc2ccc(S(=O)(=O)CC3CS3)cc2)cc1 (stereo not drawn) [Compound 32]
- MMP-14 inhibition, in words [2]: include MMP-14 in their spectrum of inhibition

Structure (SMILES): O=S(=O)(CC1CS1)c1ccc(Oc2ccc(F)cc2)cc1 (stereo not drawn) [Compound 19a]
- inhibition at 20 µM [3]: 0 to 3%
- MMP-14 inhibition, in words [2]: include MMP-14 in their spectrum of inhibition
